Data from patent publication US7919255B2, “Assessment of skeletal growth using measurements of NT-CNP peptides” (priority 2003, dated 2011).

Legend:
J39 antisera = assay: Cross reactivities of the NT-CNP radioimmunoassay using the J39 antisera; type: binding, rabbit; details: NT-CNP RIA
Experimental: Antiserum production: Human NT-CNP(1-15) (5 mg) was conjugated to 4.2 mg of bovine serum albumin (BSA, fraction V, GibcoBRL, Life Technologies) using 62.2 mg of 1-ethyl-3(3-dimethyaminopropyl) carbodiimide at pH 7 for 18 hours and dialysed against phosphate buffered saline. Rabbits were given a primary subcutaneous injection of the antigen after emulsification with an equal volume of complete Freunds adjuvant (Sigma Chemical Co., St Lois. Mo., USA). Subsequent injections using incomplete Freunds reagent were given at monthly intervals. Rabbits were bled two weeks after each injection and tested for binding of radioactive tracer and its displacement by NT-CNP (1-15) standards.
RIA for N-terminal CNP: NT-CNP(1-15)-Tyr^16 (5 μg) was iodinated using 0.5 mCi Na^125I in the presence of 10 μg chloramine-T in 5 μl 0.5M phosphate buffer, pH 7.5 for 30 seconds, followed by the addition of 50 μg cysteine, 25 μg BSA and 20 μg KI in 100 μl buffer. The resulting mixture was loaded onto a 10 m RP300 Brownlee column and eluted with a gradient from 0-60% acetonitrile in 49 mM KH2PO4 pH 2.9 over 30 min at 1 ml/min, collecting 0.5 ml fractions. The fraction containing the major peak of radioactive NT-CNP(1-15)-[^125I]Tyr^16 was used in the RIA. Peptide standards were made from synthetic human NT-CNP(1-19) taking into account the purity data supplied. […]

12 week old lambs = assay: Dexamethasone 0.25 mg/kg/day for 4 days in 12 week old lambs; type: in vivo, sheep; details: after 48 hours of dexamethasone treatment
Experimental: (§1) FIG. 11A and FIG. 11B: Effect of 4 days of treatment with a glucocorticoid (dexamethasone, 0.25 mg/kg/day) in 12 week old lambs (filled circles, n=8) and in adult sheep (open circles, n=8) on (A) plasma NT-CNP and (B) change (?) in plasma alkaline phosphatase activity (ALP). Values are mean±SEM;
(§2) This differential response to dexamethasone was highly significant for both NT-CNP (F=5.4, p<0.001) and ALP (F=4.1, p=0.002). After 48 hours of dexamethasone treatment, plasma NT-CNP in lambs fell 30.8±3.5% from basal compared with 17.7±2.7% in adult sheep. Both the onset and offset of dexamethasone's action on NT-CNP preceded that of ALP (FIG. 11A and FIG. 11B).

adult sheep = assay: Dexamethasone 0.25 mg/kg/day for 4 days in adult sheep; type: in vivo; details: after 48 hours of dexamethasone treatment
Experimental: as §1, §2

4 week old lambs = assay: Dexamethasone 0.25 mg/kg/day for 15 days in 4 week old lambs versus saline; type: in vivo, sheep
Experimental: FIG. 12A, FIG. 12B, FIG. 12C and FIG. 12D: Effect of a glucocorticoid (dexamethasone, 0.25 mg/kg/day) (filled circles, n=8) or saline control treatment (open circles, n=8), administered to 4 week old lambs for 15 days, on (FIG. 12A) plasma NT-CNP (FIG. 12B) plasma alkaline phosphatase activity (FIG. 12C) metacarpal length and (FIG. 12D) body weight. Values are mean±SEM; and
In order to study a possible linkage between changes in NT-CNP and growth velocity, a more prolonged study was undertaken in younger growing lambs.
We undertook a study in normal lambs. Lambs (n=16, aged 4 weeks) either received dexamethasone (0.25 mg/kg/day) or saline injections (controls) for 15 days. The predictive effect of a plasma NT-CNP concentration (drawn 24 hours after starting treatment) on subsequent growth inhibition (defined as growth velocity less than 5% of that of control lambs) was examined by ROC curve analysis (FIG. 13). […] The area under the curve (AUC) was 0.85.

[1] = target: antiserum J39, raised in rabbits to a synthetic peptide corresponding to the first 15 amino acids of human ProCNP(1-103), conjugated to BSA; assay: competitive radioimmunoassay: NT-CNP(1-19) standards displace NT-CNP(1-15)-[125I]Tyr16 from antiserum J39
[2] = target: antiserum J39, raised in rabbits to a synthetic peptide corresponding to the first 15 amino acids of human ProCNP(1-103), conjugated to BSA; assay: competitive radioimmunoassay with J39 antiserum
[3] = 4 week old lambs, 0.25 mg/kg/day for 15 days

Molecule: hproBNP(1-21): peptide tested for cross reactivity in the NT-CNP radioimmunoassay
- Cross reactivity (J39 antisera): < 0.4%

Molecule: hBNP32: peptide tested for cross reactivity in the NT-CNP radioimmunoassay
- Cross reactivity (J39 antisera): < 0.05%

Molecule: C[C@@H]1C[C@H]2[C@@H]3CCC4=CC(=O)C=C[C@]4(C)[C@@]3(F)[C@@H](O)C[C@]2(C)[C@@]1(O)C(=O)CO [dexamethasone]
- fall in plasma NT-CNP from basal (12 week old lambs): 30.8±3.5%
- fall in plasma NT-CNP from basal (adult sheep): 17.7±2.7%
- effect on metacarpal elongation (4 week old lambs; [3]): pronounced decrease
- time for NT-CNP to return to control levels after cessation of treatment (4 week old lambs; [3]): ≤ 24 h
- time to fall in NT-CNP after starting treatment (4 week old lambs; [3]): ≤ 24 h
- effect on body weight (4 week old lambs; 4 week old lambs, compared with saline treated lambs): small but significant effect
- body weight difference between treatment groups at cessation of treatment (4 week old lambs; day 15, dexamethasone versus saline): not significantly different

Molecule: KPGAPPKVPRTPPAEELAE [human NT-CNP(1-19)]
- ED50 [1]: 110 pM

B1: hCNP-53 (peptide)
peptide: DLRVDTKSRAAWARLLQEHPNARKYKGANKKGLSKGCFGLKLDRIGSMSGLGC
- cross reactivity [2]: < 0.07%

Molecule: GLSKGCFGLKLDRIGSMSGLGC [hCNP-22]
- cross reactivity [2]: < 0.03%
